{"source": "PubChem BioAssay (NCI)", "assay_in_all_cases": "NCI-60 cell line screen, 48 h", "key": {"786-0 renal": {"test_system": "786-0 renal"}, "A498 renal": {"test_system": "A498 renal"}, "A549 NSCLC": {"test_system": "A549 NSCLC"}, "ACHN renal": {"test_system": "ACHN renal"}, "BT-549 breast": {"test_system": "BT-549 breast"}, "CAKI-1 renal": {"test_system": "CAKI-1 renal"}, "CCRF-CEM leukemia": {"test_system": "CCRF-CEM leukemia"}, "COLO 205 colon": {"test_system": "COLO 205 colon"}, "DU-145 prostate": {"test_system": "DU-145 prostate"}, "EKVX NSCLC": {"test_system": "EKVX NSCLC"}, "HCC-2998 colon": {"test_system": "HCC-2998 colon"}, "HCT-116 colon": {"test_system": "HCT-116 colon"}, "HCT-15 colon": {"test_system": "HCT-15 colon"}, "HL-60(TB) leukemia": {"test_system": "HL-60(TB) leukemia"}, "HOP-62 NSCLC": {"test_system": "HOP-62 NSCLC"}, "HOP-92 NSCLC": {"test_system": "HOP-92 NSCLC"}, "HS 578T breast": {"test_system": "HS 578T breast"}, "HT29 colon": {"test_system": "HT29 colon"}, "IGROV1 ovarian": {"test_system": "IGROV1 ovarian"}, "K-562 leukemia": {"test_system": "K-562 leukemia"}, "KM12 colon": {"test_system": "KM12 colon"}, "LOX IMVI melanoma": {"test_system": "LOX IMVI melanoma"}, "MALME-3M melanoma": {"test_system": "MALME-3M melanoma"}, "MCF7 breast": {"test_system": "MCF7 breast"}, "MDA-MB-231 breast": {"test_system": "MDA-MB-231 breast"}, "MOLT-4 leukemia": {"test_system": "MOLT-4 leukemia"}, "NCI-H226 lung": {"test_system": "NCI-H226 lung"}}, "note": "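Step 1: Grow cells in 96-well plates. Step 2: Expose to compound for 48 hours at 5 concentrations. Step 3: Interpolate endpoints linearly; if unreached, use highest concentration. GI50: concentration for 50% inhibition of growth. TGI marks complete inhibition of growth.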"}
{"smiles": "COc1cc(/C(C#N)=C/c2nc3c(N4CCOCC4)nc(Cl)nc3n2C)cc(OC)c1OC", "values": [{"measurement": "GI50", "setting": "786-0 renal", "value": "< 10", "unit": "nM"}, {"measurement": "TGI", "setting": "786-0 renal", "value": 3120, "unit": "nM"}, {"measurement": "GI50", "setting": "A498 renal", "value": "< 10", "unit": "nM"}, {"measurement": "TGI", "setting": "A498 renal", "value": "< 10", "unit": "nM"}, {"measurement": "GI50", "setting": "A549 NSCLC", "value": "< 10", "unit": "nM"}, {"measurement": "TGI", "setting": "A549 NSCLC", "value": "> 45500", "unit": "nM"}, {"measurement": "GI50", "setting": "ACHN renal", "value": "< 10", "unit": "nM"}, {"measurement": "TGI", "setting": "ACHN renal", "value": 4990, "unit": "nM"}, {"measurement": "GI50", "setting": "BT-549 breast", "value": "< 10", "unit": "nM"}, {"measurement": "TGI", "setting": "BT-549 breast", "value": 481, "unit": "nM"}, {"measurement": "GI50", "setting": "CAKI-1 renal", "value": "< 10", "unit": "nM"}, {"measurement": "TGI", "setting": "CAKI-1 renal", "value": 2870, "unit": "nM"}, {"measurement": "GI50", "setting": "CCRF-CEM leukemia", "value": "< 10", "unit": "nM"}, {"measurement": "TGI", "setting": "CCRF-CEM leukemia", "value": 668, "unit": "nM"}, {"measurement": "GI50", "setting": "COLO 205 colon", "value": 12.4, "unit": "nM"}, {"measurement": "TGI", "setting": "COLO 205 colon", "value": 33.5, "unit": "nM"}, {"measurement": "GI50", "setting": "DU-145 prostate", "value": "< 10", "unit": "nM"}, {"measurement": "TGI", "setting": "DU-145 prostate", "value": "> 94300", "unit": "nM"}, {"measurement": "TGI", "setting": "EKVX NSCLC", "value": "> 69900", "unit": "nM"}, {"measurement": "GI50", "setting": "HCC-2998 colon", "value": "< 15.7", "unit": "nM"}, {"measurement": "TGI", "setting": "HCC-2998 colon", "value": 2190, "unit": "nM"}, {"measurement": "GI50", "setting": "HCT-116 colon", "value": "< 10", "unit": "nM"}, {"measurement": "TGI", "setting": "HCT-116 colon", "value": 464, "unit": "nM"}, {"measurement": "GI50", "setting": "HCT-15 colon", "value": "< 10", "unit": "nM"}, {"measurement": "TGI", "setting": "HCT-15 colon", "value": 6940, "unit": "nM"}, {"measurement": "GI50", "setting": "HL-60(TB) leukemia", "value": "< 10", "unit": "nM"}, {"measurement": "TGI", "setting": "HL-60(TB) leukemia", "value": "< 10", "unit": "nM"}, {"measurement": "GI50", "setting": "HOP-62 NSCLC", "value": "< 10", "unit": "nM"}, {"measurement": "TGI", "setting": "HOP-62 NSCLC", "value": 12900, "unit": "nM"}, {"measurement": "GI50", "setting": "HOP-92 NSCLC", "value": 158, "unit": "nM"}, {"measurement": "TGI", "setting": "HOP-92 NSCLC", "value": 4380, "unit": "nM"}, {"measurement": "GI50", "setting": "HS 578T breast", "value": "< 10", "unit": "nM"}, {"measurement": "TGI", "setting": "HS 578T breast", "value": "> 23700", "unit": "nM"}, {"measurement": "GI50", "setting": "HT29 colon", "value": "< 10", "unit": "nM"}, {"measurement": "TGI", "setting": "HT29 colon", "value": 3420, "unit": "nM"}, {"measurement": "GI50", "setting": "IGROV1 ovarian", "value": "< 10", "unit": "nM"}, {"measurement": "TGI", "setting": "IGROV1 ovarian", "value": 16600, "unit": "nM"}, {"measurement": "GI50", "setting": "K-562 leukemia", "value": "< 10", "unit": "nM"}, {"measurement": "TGI", "setting": "K-562 leukemia", "value": "> 38400", "unit": "nM"}, {"measurement": "GI50", "setting": "KM12 colon", "value": "< 10", "unit": "nM"}, {"measurement": "TGI", "setting": "KM12 colon", "value": 4360, "unit": "nM"}, {"measurement": "GI50", "setting": "LOX IMVI melanoma", "value": "< 10", "unit": "nM"}, {"measurement": "TGI", "setting": "LOX IMVI melanoma", "value": 4170, "unit": "nM"}, {"measurement": "GI50", "setting": "MALME-3M melanoma", "value": "< 10", "unit": "nM"}, {"measurement": "TGI", "setting": "MALME-3M melanoma", "value": 20800, "unit": "nM"}, {"measurement": "GI50", "setting": "MCF7 breast", "value": "< 11.5", "unit": "nM"}, {"measurement": "TGI", "setting": "MCF7 breast", "value": "> 32500", "unit": "nM"}, {"measurement": "GI50", "setting": "MDA-MB-231 breast", "value": "< 10", "unit": "nM"}, {"measurement": "TGI", "setting": "MDA-MB-231 breast", "value": 35900, "unit": "nM"}, {"measurement": "GI50", "setting": "MOLT-4 leukemia", "value": "< 18.4", "unit": "nM"}, {"measurement": "TGI", "setting": "MOLT-4 leukemia", "value": 27500, "unit": "nM"}, {"measurement": "TGI", "setting": "NCI-H226 lung", "value": 3030, "unit": "nM"}]}
